Patent publication US20030139332A1, “Use of matrix metalloproteinase inhibitors to mitigate nerve damage” (The Regents of the University of California, priority 2001, published 2003)
“Also recorded” adds a separate entry of the source.

Assays:
[1] = test system: MMP-9 and other gelatinases; experiment: Gelatin zymography of injured spinal cord extracts with metalloproteinase inhibitor control; format: biochemical, mouse; settings: substrate gels incubated with 4 mM 1,10-phenanthroline
Experimental: Samples of spinal cord, prepared from the epicenter, were quick-frozen at −80° C. Each sample was weighed and homogenized in (1:4 weight to volume) in lysis buffer containing 50 mM Tris-HCl (pH 8.0), 150 mM NaCl, 1% NP-40, 0.5% deoxycholate, 0.1% SDS. Soluble and insoluble extracts were separated by centrifugation and stored at −20° C. Equal amounts of the supernatant were analyzed by gel zymography as previously described (Herron et al., 1986) on 10% SDS-polyacrylamide gels, copolymerized with substrate (1 mg/ml gelatin). The proteins were renatured by incubation in 2.5% Triton-X100, and then incubated in substrate buffer (50 mM Tris-HCl, […]) for 24 to 36 hours at 37° C. to enable the MMP-9 and other gelatinases to cleave the gelatin. After rinsing in water, each gel was stained with Coomassie Blue for 4 hours and destained in 50% methanol. Negative staining is indicative of the location of active protease bands. After exposure to SDS during gel separation, proenzymes, present in tissue extracts, are activated without proteolytic cleavage. To inhibit MMP proteolytic activities, substrate gels were incubated in substrate buffer with 4 mM 1,10-phenanthroline (Sigma, St. Louis, Mo.), as described (Adler et al. 1990) Development 110:211-220). This control ensured that the measured activity corresponded to matrix metalloproteinase activity. […]

[2] = test system: blood-spinal cord barrier; experiment: Blood-spinal cord barrier permeability to horseradish peroxidase (HRP) after contusive spinal cord injury; format: in vivo, mouse; settings: 24 hours post injury, GM 6001 100 mg/kg i.p. from 3 hours post injury, compared to wild type; for blood-spinal cord barrier permeability to HRP at the lesion epicenter: wild type mice, every 12 hours
Experimental: (§1) Adult, male mice (4-6 months of age), were anesthetized with 2.5% Avertin (0.02 ml/g bw, i.p.) and maintained at 37° C. throughout the experiment by using a warming blanket placed under the animal. […] Briefly, using aseptic techniques the spinous process and laminae of T8 were removed and a circular region of dura, approximately 2.4 mm in diameter, was exposed. After stabilization of the vertebral column, a 2 gm weight was dropped 5.0 cm onto the exposed dura. After injury, the overlying skin was closed with wound clips. Postoperative care included manual expression of each animal's bladder until recovery of reflex emptying.
(§2) Wild type mice were subjected to spinal cord injury as described in the previous section. […] Animals were treated every 12 hours (100 mg/kg in 4% methylcellulose, i.p.), for the first 3 days post injury.

[3] = test system: blood-spinal cord barrier; experiment: Blood-spinal cord barrier permeability to luciferase after spinal cord injury; format: in vivo, mouse; settings: 24 hours post injury, GM6001 begun at 3 hours after injury, N=6, vs vehicle N=4, P=0.04
Experimental: as §1, §2

neutrophils = experiment: Neutrophil infiltration into the lesion (chloroacetate esterase stain) after spinal cord injury; format: in vivo, mouse; settings: 24 hours post injury; GM6001 N=4 vs vehicle N=4; P=0.01
Experimental: Adult, male mice (4-6 months of age), were anesthetized with 2.5% Avertin (0.02 ml/g bw, i.p.) and maintained at 37° C. throughout the experiment by using a warming blanket placed under the animal. A contusive injury was performed based upon modifications of procedures originally described by Kuhn and Wrathall (1998) J. Neurotrauma 15:125-140. Briefly, using aseptic techniques the spinous process and laminae of T8 were removed and a circular region of dura, approximately 2.4 mm in diameter, was exposed. After stabilization of the vertebral column, a 2 gm weight was dropped 5.0 cm onto the exposed dura. After injury, the overlying skin was closed with wound clips. Postoperative care included manual expression of each animal's bladder until recovery of reflex emptying. […]
The protocol was as described by the manufacturer with several exceptions. […] The number of neutrophils within each of these sections was determined from digital images, captured with a CCD camera, as described in the preceding paragraph at 40×magnification. […] Only darkly stained structures, greater than 38 μm^2 (7 μm in diameter) were counted. For the rostral and caudal sections, the numbers of neutrophils within the entire cross sections were determined and summed. For the epicenter, neutrophils were quantified within specific regions of the cross section. […]

spinal cord injured mice = experiment: Locomotor recovery after spinal cord injury, open field BBB Locomotor Rating Scale; format: in vivo, mouse; settings: over 6 weeks post injury, GM6001 N=9 vs vehicle N=4, treatment 3 hours to 3 days post injury
Experimental: as §1, §2
This scale assesses 10 distinct categories that range from limb movement to tail position and involve detailed observations of joint movement, stepping, and coordination. […] Spinal cord injured animals were tested on days 1 and 3 post injury and weekly thereafter for 6 weeks. […] Positioning of the limbs and locomotion was then observed by either directly or indirectly (via the mirror) viewing the animal.

spinal cord white matter = experiment: Area of residual white matter at the lesion epicenter (Luxol fast blue); format: in vivo, mouse; settings: 42 days post injury, GM6001 vs vehicle, P=0.01
Experimental: Adult, male mice (4-6 months of age), were anesthetized with 2.5% Avertin (0.02 ml/g bw, i.p.) and maintained at 37° C. throughout the experiment by using a warming blanket placed under the animal. A contusive injury was performed based upon modifications of procedures originally described by Kuhn and Wrathall (1998) J. Neurotrauma 15:125-140. Briefly, using aseptic techniques the spinous process and laminae of T8 were removed and a circular region of dura, approximately 2.4 mm in diameter, was exposed. After stabilization of the vertebral column, a 2 gm weight was dropped 5.0 cm onto the exposed dura. After injury, the overlying skin was closed with wound clips. Postoperative care included manual expression of each animal's bladder until recovery of reflex emptying.
Wild type mice were subjected to spinal cord injury as described in the previous section. All mice were treated with either GM 6001 (AMS Scientific, Inc., Concord, Calif. 100 mg/kg in 4% methylcellulose, i.p.), a general inhibitor of MMPs, or vehicle (4% methylcellulose, i.p.), at 3 hours post injury. […]
The area of residual white matter at the epicenter was determined in vehicle-and drug-treated wild type mice at 42 days post injury. […] These sections were captured with a Spotcam camera mounted on a Nikon Optiphot and analyzed using Photoshop 6.0™. […] These pixels were quantified and expressed per unit area.

Structure (SMILES) | gelatinolytic activity (inactive and active forms of MMP-9 and MMP-2) in gelatin zymography [1] | axial distribution of abnormal barrier permeability to HRP (segments rostral and caudal to the lesion) [2] | blood-spinal cord barrier permeability to HRP at the lesion epicenter ([2]; 100 mg/kg) | blood-spinal cord barrier permeability to HRP at the lesion epicenter ([2]; listed as GM 6001, 100 mg/kg) | abnormal barrier permeability to luciferase in the epicenter [3] | abnormal barrier permeability to luciferase in the epicenter ([3]; listed as GM 6001) | numbers of neutrophils within the lesion epicenter (neutrophils) | locomotor recovery (BBB Locomotor Rating Scale, 21 point scale) (spinal cord injured mice) | locomotor recovery (BBB Locomotor Rating Scale, 21 point scale) (spinal cord injured mice; listed as GM 6001) | area of residual white matter at the lesion epicenter (spinal cord white matter) | area of residual white matter at the lesion epicenter (spinal cord white matter; listed as GM 6001)
c1cnc2c(c1)ccc1cccnc12 [1,10 phenanthroline, 1,10-phenanthroline] | completely blocked the gelatinolytic activity; also recorded: completely blocks the inactive and active forms |  |  |  |  |  |  |  |  |  | 
CNC(=O)[C@H](Cc1c[nH]c2ccccc12)NC(=O)[C@@H](CC(=O)NO)CC(C)C [GM6001] |  | not observed | marked increase in permeability to HRP in the wild type mice as compared to | only light patches of HRP reaction product in the epicenter | significant reduction in barrier permeability | significantly attenuated | significant reduction in the numbers of neutrophils | greater locomotor | significant locomotor recovery as early as 3 days post injury and weekly thereafter | significantly greater preservation of white matter | significant preservation of white matter
